# In patent US10494332B2, “Protein tyrosine phosphatases or SHP2 inhibitors and uses thereof” (Indiana University Research and Technology Corporation, priority 2015, dated 2019):
# Biological target: T1, LMWPTP (Homo sapiens, UniProt P24666)
# T1 sequence (P24666 1-158): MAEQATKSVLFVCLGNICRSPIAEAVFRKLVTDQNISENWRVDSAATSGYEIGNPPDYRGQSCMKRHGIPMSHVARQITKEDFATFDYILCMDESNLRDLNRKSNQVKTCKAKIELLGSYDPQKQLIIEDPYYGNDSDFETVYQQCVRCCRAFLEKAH
# Experiment: PTP inhibition assay (pNPP)
# Format: biochemical
# Conditions: pNPP at Km, pH 7.0, 25° C.
row,Compound,IC50 [µM]
1,Cc1cccc2sc(NC(=O)C(c3ccccc3)S(=O)(=O)O)nc12 (stereo not shown) [Compound L319N15-02],9.6
2,COc1cccc2sc(NC(=O)C(c3ccccc3)S(=O)(=O)O)nc12 (stereo not shown) [Compound L319N15-03],7.6
3,Cc1cc2nc(NC(=O)C(c3ccccc3)S(=O)(=O)O)sc2cc1C (stereo not shown) [Compound L319N15-04],4.8
4,O=C(Nc1nc2ccc(F)cc2s1)C(c1ccccc1)S(=O)(=O)O (stereo not shown) [Compound L319N15-05],4.2
5,O=C(Nc1nc2ccc(Cl)cc2s1)C(c1ccccc1)S(=O)(=O)O (stereo not shown) [Compound L319N15-06],5.6
6,O=C(Nc1nc2ccc(O[N+](=O)[O-])cc2s1)C(c1ccccc1)S(=O)(=O)O (stereo not shown) [Compound L319N15-07],2.1
7,Cc1ccc2nc(NC(=O)C(c3ccccc3)S(=O)(=O)O)sc2c1 (stereo not shown) [Compound L319N15-08],8.2

# Biological target: T2, Laforin (Homo sapiens, UniProt O95278)
# T2 sequence (O95278 1-331): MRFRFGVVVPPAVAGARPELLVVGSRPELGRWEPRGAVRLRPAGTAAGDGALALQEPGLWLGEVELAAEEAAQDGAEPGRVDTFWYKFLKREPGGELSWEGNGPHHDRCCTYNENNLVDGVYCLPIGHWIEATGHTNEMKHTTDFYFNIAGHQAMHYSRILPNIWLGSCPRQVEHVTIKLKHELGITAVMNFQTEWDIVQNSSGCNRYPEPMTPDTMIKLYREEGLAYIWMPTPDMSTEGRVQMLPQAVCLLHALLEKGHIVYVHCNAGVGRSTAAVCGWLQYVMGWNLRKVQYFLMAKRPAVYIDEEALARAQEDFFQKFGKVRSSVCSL
# Experiment: PTP inhibition assay (pNPP)
# Format: biochemical
# Conditions: 100 μM
row,Compound,Inhibition of Laforin at 100 μM
1,O=C(Nc1nc2ccc(O[N+](=O)[O-])cc2s1)C(c1ccccc1)S(=O)(=O)O (stereo not shown) [Compound L319N15-07],no detectable inhibition

# Same assay, conditions: pNPP at Km, pH 7.0, 25° C.; read-out: IC50 Laforin
row,Compound,IC50 [µM]
1,Cc1cccc2sc(NC(=O)C(c3ccccc3)S(=O)(=O)O)nc12 (stereo not shown) [Compound L319N15-02],4
2,COc1cccc2sc(NC(=O)C(c3ccccc3)S(=O)(=O)O)nc12 (stereo not shown) [Compound L319N15-03],1.2
3,Cc1cc2nc(NC(=O)C(c3ccccc3)S(=O)(=O)O)sc2cc1C (stereo not shown) [Compound L319N15-04],1.1
4,O=C(Nc1nc2ccc(F)cc2s1)C(c1ccccc1)S(=O)(=O)O (stereo not shown) [Compound L319N15-05],1.7
5,O=C(Nc1nc2ccc(Cl)cc2s1)C(c1ccccc1)S(=O)(=O)O (stereo not shown) [Compound L319N15-06],2.3
6,O=C(Nc1nc2ccc(O[N+](=O)[O-])cc2s1)C(c1ccccc1)S(=O)(=O)O (stereo not shown) [Compound L319N15-07],> 200
7,Cc1ccc2nc(NC(=O)C(c3ccccc3)S(=O)(=O)O)sc2c1 (stereo not shown) [Compound L319N15-08],2

# Biological target: T3, PTP1B (Homo sapiens, UniProt P18031)
# T3 sequence (P18031 1-435): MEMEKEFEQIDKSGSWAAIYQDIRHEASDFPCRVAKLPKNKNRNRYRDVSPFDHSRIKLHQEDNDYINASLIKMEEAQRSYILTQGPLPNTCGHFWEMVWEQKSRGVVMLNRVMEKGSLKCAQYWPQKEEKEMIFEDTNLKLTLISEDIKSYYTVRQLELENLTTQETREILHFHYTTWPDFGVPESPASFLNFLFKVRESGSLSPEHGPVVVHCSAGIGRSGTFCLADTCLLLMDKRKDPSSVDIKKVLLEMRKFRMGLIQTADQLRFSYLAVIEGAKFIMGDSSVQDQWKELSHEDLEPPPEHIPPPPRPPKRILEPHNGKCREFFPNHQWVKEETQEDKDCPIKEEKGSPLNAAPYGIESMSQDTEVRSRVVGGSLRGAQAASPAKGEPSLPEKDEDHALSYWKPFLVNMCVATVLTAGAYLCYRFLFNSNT
# Experiment: PTP inhibition assay (pNPP)
# Format: biochemical
# Conditions: pNPP at Km, pH 7.0, 25° C.
row,Compound,IC50 [µM]
1,Cc1cccc2sc(NC(=O)C(c3ccccc3)S(=O)(=O)O)nc12 (stereo not shown) [Compound L319N15-02],> 200
2,COc1cccc2sc(NC(=O)C(c3ccccc3)S(=O)(=O)O)nc12 (stereo not shown) [Compound L319N15-03],> 200
3,Cc1cc2nc(NC(=O)C(c3ccccc3)S(=O)(=O)O)sc2cc1C (stereo not shown) [Compound L319N15-04],> 200
4,O=C(Nc1nc2ccc(F)cc2s1)C(c1ccccc1)S(=O)(=O)O (stereo not shown) [Compound L319N15-05],> 200
5,O=C(Nc1nc2ccc(Cl)cc2s1)C(c1ccccc1)S(=O)(=O)O (stereo not shown) [Compound L319N15-06],80
6,O=C(Nc1nc2ccc(O[N+](=O)[O-])cc2s1)C(c1ccccc1)S(=O)(=O)O (stereo not shown) [Compound L319N15-07],> 200
7,Cc1ccc2nc(NC(=O)C(c3ccccc3)S(=O)(=O)O)sc2c1 (stereo not shown) [Compound L319N15-08],> 200

# Biological target: T4, LYP (Homo sapiens, UniProt Q9Y2R2)
# T4 sequence (Q9Y2R2 1-807): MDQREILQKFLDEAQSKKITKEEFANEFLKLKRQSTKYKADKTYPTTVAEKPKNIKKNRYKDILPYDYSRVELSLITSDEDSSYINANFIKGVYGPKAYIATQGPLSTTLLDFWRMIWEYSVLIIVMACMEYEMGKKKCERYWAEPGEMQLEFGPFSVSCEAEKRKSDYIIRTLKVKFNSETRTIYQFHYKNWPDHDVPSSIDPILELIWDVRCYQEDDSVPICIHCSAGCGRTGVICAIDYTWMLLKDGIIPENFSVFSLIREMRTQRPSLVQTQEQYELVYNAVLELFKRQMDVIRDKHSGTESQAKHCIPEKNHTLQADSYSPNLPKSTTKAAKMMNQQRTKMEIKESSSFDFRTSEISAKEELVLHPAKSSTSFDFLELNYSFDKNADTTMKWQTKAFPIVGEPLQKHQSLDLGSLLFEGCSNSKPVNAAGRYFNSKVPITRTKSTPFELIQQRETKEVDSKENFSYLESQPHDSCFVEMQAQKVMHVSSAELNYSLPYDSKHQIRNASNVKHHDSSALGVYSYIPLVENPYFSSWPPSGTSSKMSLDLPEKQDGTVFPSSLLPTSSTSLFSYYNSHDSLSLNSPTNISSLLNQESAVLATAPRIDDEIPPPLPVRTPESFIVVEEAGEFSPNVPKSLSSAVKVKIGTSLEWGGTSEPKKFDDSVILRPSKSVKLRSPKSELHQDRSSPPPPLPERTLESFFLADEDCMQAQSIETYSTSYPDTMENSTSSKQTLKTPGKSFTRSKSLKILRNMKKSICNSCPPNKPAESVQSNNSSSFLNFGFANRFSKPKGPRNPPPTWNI
# Experiment: PTP inhibition assay (pNPP)
# Format: biochemical
# Conditions: pNPP at Km, pH 7.0, 25° C.
row,Compound,IC50 [µM]
1,Cc1cccc2sc(NC(=O)C(c3ccccc3)S(=O)(=O)O)nc12 (stereo not shown) [Compound L319N15-02],110
2,COc1cccc2sc(NC(=O)C(c3ccccc3)S(=O)(=O)O)nc12 (stereo not shown) [Compound L319N15-03],> 200
3,Cc1cc2nc(NC(=O)C(c3ccccc3)S(=O)(=O)O)sc2cc1C (stereo not shown) [Compound L319N15-04],90
4,O=C(Nc1nc2ccc(F)cc2s1)C(c1ccccc1)S(=O)(=O)O (stereo not shown) [Compound L319N15-05],150
5,O=C(Nc1nc2ccc(Cl)cc2s1)C(c1ccccc1)S(=O)(=O)O (stereo not shown) [Compound L319N15-06],23
6,O=C(Nc1nc2ccc(O[N+](=O)[O-])cc2s1)C(c1ccccc1)S(=O)(=O)O (stereo not shown) [Compound L319N15-07],> 100
7,Cc1ccc2nc(NC(=O)C(c3ccccc3)S(=O)(=O)O)sc2c1 (stereo not shown) [Compound L319N15-08],> 200

# Biological target: T5, SHP2 (Homo sapiens, UniProt Q06124)
# T5 sequence (Q06124 224-528): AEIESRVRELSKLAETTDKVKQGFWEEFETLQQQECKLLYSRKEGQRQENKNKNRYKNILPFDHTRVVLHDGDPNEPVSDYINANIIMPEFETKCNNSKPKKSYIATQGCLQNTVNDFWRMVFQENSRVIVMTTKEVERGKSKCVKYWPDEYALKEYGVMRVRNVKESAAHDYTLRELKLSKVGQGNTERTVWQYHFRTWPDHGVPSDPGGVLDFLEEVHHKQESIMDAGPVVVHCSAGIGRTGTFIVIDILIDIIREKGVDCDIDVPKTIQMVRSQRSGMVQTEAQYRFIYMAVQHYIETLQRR
# Experiment: SHP2 phosphatase inhibition assay (pNPP)
# Format: biochemical
# Conditions: pNPP at Km, pH 7.0, 25° C.; read-out: IC50 SHP2
row,Compound,IC50 [µM]
1,Cc1cccc2sc(NC(=O)C(c3ccccc3)S(=O)(=O)O)nc12 (stereo not shown) [Compound L319N15-02],129
2,COc1cccc2sc(NC(=O)C(c3ccccc3)S(=O)(=O)O)nc12 (stereo not shown) [Compound L319N15-03],> 200
3,Cc1cc2nc(NC(=O)C(c3ccccc3)S(=O)(=O)O)sc2cc1C (stereo not shown) [Compound L319N15-04],112
4,O=C(Nc1nc2ccc(F)cc2s1)C(c1ccccc1)S(=O)(=O)O (stereo not shown) [Compound L319N15-05],173
5,O=C(Nc1nc2ccc(Cl)cc2s1)C(c1ccccc1)S(=O)(=O)O (stereo not shown) [Compound L319N15-06],30
6,O=C(Nc1nc2ccc(O[N+](=O)[O-])cc2s1)C(c1ccccc1)S(=O)(=O)O (stereo not shown) [Compound L319N15-07],> 200
7,Cc1ccc2nc(NC(=O)C(c3ccccc3)S(=O)(=O)O)sc2c1 (stereo not shown) [Compound L319N15-08],> 200

# Biological target: T6, CD45 (Homo sapiens, UniProt P08575)
# T6 sequence (P08575 26-1306): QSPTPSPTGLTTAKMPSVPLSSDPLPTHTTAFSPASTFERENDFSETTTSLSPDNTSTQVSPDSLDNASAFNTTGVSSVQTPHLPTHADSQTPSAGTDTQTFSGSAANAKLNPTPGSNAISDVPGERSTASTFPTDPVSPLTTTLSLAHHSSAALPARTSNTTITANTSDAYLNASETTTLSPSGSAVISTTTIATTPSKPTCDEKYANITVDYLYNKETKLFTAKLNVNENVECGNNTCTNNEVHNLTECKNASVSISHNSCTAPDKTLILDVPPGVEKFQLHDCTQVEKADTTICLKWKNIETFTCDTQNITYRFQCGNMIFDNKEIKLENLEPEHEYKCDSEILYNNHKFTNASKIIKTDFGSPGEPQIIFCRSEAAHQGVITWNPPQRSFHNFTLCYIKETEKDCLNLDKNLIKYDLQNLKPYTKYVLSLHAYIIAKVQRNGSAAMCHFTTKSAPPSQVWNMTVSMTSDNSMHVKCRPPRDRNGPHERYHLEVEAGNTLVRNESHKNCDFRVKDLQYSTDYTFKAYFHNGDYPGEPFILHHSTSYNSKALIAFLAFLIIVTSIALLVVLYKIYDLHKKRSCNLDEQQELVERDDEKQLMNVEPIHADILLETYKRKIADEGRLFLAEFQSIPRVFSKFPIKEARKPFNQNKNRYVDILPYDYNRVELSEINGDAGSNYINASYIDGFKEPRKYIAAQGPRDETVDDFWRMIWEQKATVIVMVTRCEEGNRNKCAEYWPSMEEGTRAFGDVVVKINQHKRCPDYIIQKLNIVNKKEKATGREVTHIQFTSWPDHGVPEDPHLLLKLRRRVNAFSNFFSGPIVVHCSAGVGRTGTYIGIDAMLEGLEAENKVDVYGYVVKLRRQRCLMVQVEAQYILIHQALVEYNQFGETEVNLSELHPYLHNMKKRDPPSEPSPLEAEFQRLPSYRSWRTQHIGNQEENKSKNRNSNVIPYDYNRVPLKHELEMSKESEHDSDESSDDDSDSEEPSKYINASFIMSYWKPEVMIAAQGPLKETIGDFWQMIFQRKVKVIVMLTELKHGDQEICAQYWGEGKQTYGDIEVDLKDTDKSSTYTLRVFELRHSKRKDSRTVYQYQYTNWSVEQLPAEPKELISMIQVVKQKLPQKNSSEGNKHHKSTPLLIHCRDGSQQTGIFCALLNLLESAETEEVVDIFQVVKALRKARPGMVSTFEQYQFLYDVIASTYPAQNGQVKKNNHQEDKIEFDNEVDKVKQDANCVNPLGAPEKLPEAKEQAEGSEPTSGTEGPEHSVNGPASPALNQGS
# Experiment: PTP inhibition assay (pNPP)
# Format: biochemical
# Conditions: pNPP at Km, pH 7.0, 25° C.
row,Compound,IC50 [µM]
1,Cc1cccc2sc(NC(=O)C(c3ccccc3)S(=O)(=O)O)nc12 (stereo not shown) [Compound L319N15-02],> 200
2,COc1cccc2sc(NC(=O)C(c3ccccc3)S(=O)(=O)O)nc12 (stereo not shown) [Compound L319N15-03],> 200
3,Cc1cc2nc(NC(=O)C(c3ccccc3)S(=O)(=O)O)sc2cc1C (stereo not shown) [Compound L319N15-04],> 200
4,O=C(Nc1nc2ccc(F)cc2s1)C(c1ccccc1)S(=O)(=O)O (stereo not shown) [Compound L319N15-05],> 200
5,O=C(Nc1nc2ccc(Cl)cc2s1)C(c1ccccc1)S(=O)(=O)O (stereo not shown) [Compound L319N15-06],130
6,O=C(Nc1nc2ccc(O[N+](=O)[O-])cc2s1)C(c1ccccc1)S(=O)(=O)O (stereo not shown) [Compound L319N15-07],> 200
7,Cc1ccc2nc(NC(=O)C(c3ccccc3)S(=O)(=O)O)sc2c1 (stereo not shown) [Compound L319N15-08],> 200
